Source: US11479546B2, “Antimalarial hexahydropyrimidine analogues” (UCB Biopharma SRL, priority 2018, dated 2022)

Test system: Plasmodium falciparum 3D7
Assay: P. falciparum 3D7 asexual blood stage assay, Assay Procedure Version 1 (SYBR green readout)
Assay type: cell-based
Conditions: 3D7, Erythrocyte, Version 1 of the assay procedure (no asterisk), 72 h incubation in infected erythrocytes, 10,000 nM to 0.51 nM
Procedure: Asexual Blood Stage Assay
The assay used to measure the effect of test compounds on a bloodstream stage of Plasmodium falciparum 3D7 strain employs SYBR green as the readout. This is a dye that binds to double stranded deoxyribonucleic acid (DNA) with a resulting increase in fluorescence, allowing detection of P. falciparum DNA in infected erythrocytes, and thereby providing a measure of parasite growth and propagation.
P. falciparum Culture Maintenance
Erythrocytes (A+blood) were prepared for both parasite culture and assay by washing 4 times with incomplete media (15.9 g RPMI 1640 (25 mM HEPES, L-glutamine), 1 g NaHCO3, 2 g glucose, 400 μL gentacin (500 mg/mL), 2 mL hypoxanthine solution (13.6 g/L in 0.1M NaOH pH 7.3) in 1 litre of media). The cells were centrifuged at 1800 g for 5 minutes, before decanting the supernatant and re-suspending in fresh incomplete media. On the final wash, the cells were re-suspended in complete media (incomplete media with 5 g/L AlbumaxII), and centrifuged at 1800 g for 3 minutes. This cell sediment was treated as 100% haematocrit.
P. falciparum 3D7 was cultured in erythrocytes at 5% haematocrit in complete media at 37° C. (1% O2, 3% CO2, balance N2). Cultures were split on a weekly basis to achieve a 1% parasitaemia in erythrocites at 5% haematocrit in fresh media. Culture media is replaced by fresh media every other day (2 times during the week).
Assay Procedure—Version 1
On day 1, test compounds were added to assay plates using Echo dispensing technology (3 fold dilution and 10 points titration). 50 nL of each compound dilution was added to 50 μL of culture (5% haematocrit, 0.5% parasitaemia) and incubated for 72 h at 37° C. (1% O2, 3% CO2, balance N2). Final concentrations of test compounds ranged from 10,000 nM to 0.51 nM, in […].
On day 4, 10 μL SYBR green (Invitrogen S7563 supplied as 10,000×concentrate in DMSO) pre-diluted to 3× concentrate with Lysis buffer (20 mM Tris pH 7.9, 5% EDTA, 0.16% w/v, 1.6% TX100 v/v) was added to the cultures and incubated in the dark, overnight, at room temperature.
On day 5, fluorescent signal was measured using a BioTek plate reader (excitation 485 nm, emission 528 nm). All data were processed using IDBS ActivityBase. Raw data were converted into percent inhibition through linear regression by setting the high inhibition control as 100% and the no inhibition control as 0%. Quality control criteria for passing plates were as follows: Z′>0.5, S:B>3, % CV(no inhibition control)<15. The formula used to calculate Z′ is
All EC50 curve fitting was undertaken using the following 4 parametric equation:
[formula] where A=% inhibition at bottom; B=% inhibition at top; C=EC50; D=slope; x=inhibitor concentration; and y=% inhibition. […] Assay Procedure—Version 2

IC50 [nM] | SMILES
243 | C[C@@]1(c2ccc(F)c(Nc3ccc(F)cc3)c2Cl)CC(=O)N(C2CCOCC2)C(=N)N1 [Example 206, (6S)-6-[2-Chloro-4-fluoro-3-(4-fluoroanilino)phenyl]-2-imino-6-methyl-3-(tetrahydro-pyran-4-yl)hexahydropyrimidin-4-one]
400 | C[C@@]1(c2cccc(Nc3ccccc3)c2Cl)CC(=O)N(CC2(O)CC2)C(=N)N1 [Example 1, (6S)-6-(3-Anilino-2-chloro-phenyl)-3-[(1-hydroxy-cyclopropyl)methyl]-2-imino-6-methylhexahydropyrimidin-4-one]
2280 | COc1ccc(Nc2cccc([C@]3(C)CC(=O)N(C4CCOCC4)C(=N)N3)c2Cl)cc1 [Example 159, (6S)-6-[2-Chloro-3-(4-methoxy-anilino)phenyl]-2-imino-6-methyl-3-(tetrahydropyran-4-yl)hexahydropyrimidin-4-one]
1680 | COc1cc(Nc2cccc([C@]3(C)CC(=O)N(C4CCOCC4)C(=N)N3)c2Cl)cc(OC)c1 [Example 161, (6S)-6-[2-Chloro-3-(3,5-dimethoxyanilino)phenyl]-2-imino-6-methyl-3-(tetrahydro-pyran-4-yl)hexahydropyrimidin-4-one]
659 | Cc1ccc(Nc2c(F)ccc([C@]3(C)CC(=O)N(C4CCOCC4)C(=N)N3)c2Cl)cn1 [Example 207, (6S)-6-{2-Chloro-4-fluoro-3-[(6-methylpyridin-3-yl)amino]phenyl}-2-imino-6-methyl-3-(tetrahydropyran-4-yl)hexahydropyrimidin-4-one]
851 | C[C@@]1(c2cccc(Nc3cc(C(F)(F)F)cnc3Cl)c2Cl)CC(=O)N(C2CCOCC2)C(=N)N1 [Example 32, (6S)-6-(2-Chloro-3-{[2-chloro-5-(trifluoromethyl)pyridin-3-yl]amino}phenyl)-2-imino-6-methyl-3-(tetrahydropyran-4-yl)hexahydropyrimidin-4-one]
1950 | C[C@@]1(c2cccc(Nc3cccc(S(C)(=O)=O)c3)c2Cl)CC(=O)N(C2CCOCC2)C(=N)N1 [Example 41, (6S)-6-[2-Chloro-3-(3-methyl-sulfonylanilino)phenyl]-2-imino-6-methyl-3-(tetrahydro-pyran-4-yl)hexahydropyrimidin-4-one]
1180 | C[C@@]1(c2cccc(Nc3cccc4ncccc34)c2Cl)CC(=O)N(C2CCOCC2)C(=N)N1 [Example 21, (6S)-6-[2-Chloro-3-(quinolin-5-ylamino)phenyl]-2-imino-6-methyl-3-(tetrahydropyran-4-yl)hexahydropyrimidin-4-one]
811 | C[C@@]1(c2cccc(Nc3cc(F)c(F)cc3F)c2Cl)CC(=O)N(C2CCOCC2)C(=N)N1 [Example 38, (6S)-6-[2-Chloro-3-(2,4,5-trifluoroanilino)phenyl]-2-imino-6-methyl-3-(tetrahydro-pyran-4-yl)hexahydropyrimidin-4-one]
790 | C[C@@]1(c2cccc(Nc3cc(Cl)cc(C#N)c3)c2Cl)CC(=O)N(C2CCOCC2)C(=N)N1 [Example 34, 3-Chloro-5-{2-chloro-3-[(4S)-2-imino-4-methyl-6-oxo-1-(tetrahydropyran-4-yl)-hexahydropyrimidin-4-yl]-anilino}benzonitrile]
1520 | C[C@@]1(c2cccc(Nc3cc(OC(F)(F)F)ccc3F)c2Cl)CC(=O)N(C2CCOCC2)C(=N)N1 [Example 22, (6S)-6-{2-Chloro-3-[2-fluoro-5-(trifluoromethoxy)anilino]-phenyl}-2-imino-6-methyl-3-(tetrahydropyran-4-yl)-hexahydropyrimidin-4-one]
120 | C[C@@]1(c2cccc(Nc3ccccc3)c2Cl)CC(=O)N([C@H]2CCOC2)C(=N)N1 (relative stereo) [Example 5, (6S)-6-(3-Anilino-2-chloro-phenyl)-2-imino-6-methyl-3-[(3S or 3R*)-tetrahydrofuran-3-yl]hexahydropyrimidin-4-one]
3460 | C[C@@]1(c2cccc(Nc3ccc(F)cc3)c2Cl)CC(=O)N([C@H]2C[C@@H]3CC[C@H]2O3)C(=N)N1 (racemic) [Example 188, (6S)-6-[2-Chloro-3-(4-fluoro-anilino)phenyl]-2-imino-6-methyl-3-[(1RS,2SR,4SR)-7-oxabicyclo[2.2.1]heptan-3-yl]-hexahydropyrimidin-4-one]
333 | C[C@@]1(c2cccc(Nc3cccc(C#N)c3)c2Cl)CC(=O)N(C2CCOCC2)C(=N)N1 [Example 9, 3-{2-Chloro-3-[(4S)-2-imino-4-methyl-6-oxo-1-(tetrahydro-pyran-4-yl)hexahydropyrimidin-4-yl]anilino}benzonitrile]
2380 | C[C@@]1(c2cccc(Nc3cn4ccccc4n3)c2Cl)CC(=O)N(C2CCOCC2)C(=N)N1 [Example 35, (6S)-6-[2-Chloro-3-(imidazo-[1,2-a]pyridin-2-ylamino)-phenyl]-2-imino-6-methyl-3-(tetrahydropyran-4-yl)-hexahydropyrimidin-4-one]
821 | C[C@@]1(c2cccc(Nc3ccc(N4CCOCC4)nc3)c2Cl)CC(=O)N(C2CCOCC2)C(=N)N1 [Example 25, (6S)-6-(2-Chloro-3-{[6-(morpholin-4-yl)pyridin-3-yl]amino}phenyl)-2-imino-6-methyl-3-(tetrahydropyran-4-yl)hexahydropyrimidin-4-one]
80 | C[C@@]1(c2cccc(Nc3ccccc3)c2Cl)CC(=O)N(CC2CCOCC2)C(=N)N1 [Example 3, (6S)-6-(3-Anilino-2-chloro-phenyl)-2-imino-6-methyl-3-(tetrahydropyran-4-ylmethyl)-hexahydropyrimidin-4-one]
430 | C[C@@]1(c2cccc(Nc3ccc(C(F)(F)F)nc3)c2Cl)CC(=O)N(C2CCOCC2)C(=N)N1 [Example 31, (6S)-6-(2-Chloro-3-{[6-(trifluoromethyl)pyridin-3-yl]amino}phenyl)-2-imino-6-methyl-3-(tetrahydropyran-4-yl)hexahydropyrimidin-4-one]
1140 | C[C@@]1(c2cccc(Nc3ccc(F)cc3)c2Cl)CC(=O)N(C2CC3(COC3)C2)C(=N)N1 [Example 171, (6S)-6-[2-Chloro-3-(4-fluoro-anilino)phenyl]-2-imino-6-methyl-3-(2-oxaspiro[3.3]-heptan-6-yl)hexahydro-pyrimidin-4-one]
2310 | C[C@@]1(c2cccc(Nc3cccnc3)c2Cl)CC(=O)N(C2CCOCC2)C(=N)N1 [Example 20, (6S)-6-[2-Chloro-3-(pyridin-3-ylamino)phenyl]-2-imino-6-methyl-3-(tetrahydropyran-4-yl)hexahydropyrimidin-4-one]
820 | C[C@@]1(c2cccc(Nc3ccc(F)cc3)c2Cl)CC(=O)N(C2CCCOC2)C(=N)N1 (single isomer, unassigned) [Example 189, (6S)-6-[2-Chloro-3-(4-fluoro-anilino)phenyl]-2-imino-6-methyl-3-[(3S*)-tetrahydro-pyran-3-yl]hexahydropyrimidin-4-one]
270 | C[C@@]1(c2cccc(Nc3ccccc3C#N)c2Cl)CC(=O)N(C2CCOCC2)C(=N)N1 [Example 17, 2-{2-Chloro-3-[(4S)-2-imino-4-methyl-6-oxo-1-(tetrahydro-pyran-4-yl)hexahydropyrimidin-4-yl]anilino}benzonitrile]
1780 | COC(=O)c1cccc(Nc2cccc([C@]3(C)CC(=O)N(C4CCOCC4)C(=N)N3)c2Cl)c1 [Example 166, Methyl 3-{2-chloro-3-[(4S)-2-imino-4-methyl-6-oxo-1-(tetrahydropyran-4-yl)-hexahydropyrimidin-4-yl]-anilino}benzoate]
1510 | C[C@@]1(c2cccc(Nc3ccc(C#N)nc3)c2Cl)CC(=O)N(C2CCOCC2)C(=N)N1 [Example 40, 5-{2-Chloro-3-[(4S)-2-imino-4-methyl-6-oxo-1-(tetrahydro-pyran-4-yl)hexahydropyrimidin-4-yl]anilino}pyridine-2-carbo-nitrile]
323 | C[C@@]1(c2cccc(Nc3ccc(F)cc3)c2Cl)CC(=O)N([C@@H]2CCOC2)C(=N)N1 (relative stereo) [Example 169, (6S)-6-[2-Chloro-3-(4-fluoro-anilino)phenyl]-2-imino-6-methyl-3-[(3R*)-tetrahydro-furan-3-yl]hexahydropyrimidin-4-one]
